Data taken from patent US20040248958A1, “Heterocyclic amide derivatives” (priority 2001, published 2004).
Read-outs that look alike come from different tables or passages of the source.

Assay: logP determination by HPLC on reversed-phase column (EEC Directive 79/831 Annex V.A8)
Type: physicochemical
Details: reversed-phase HPLC column (C18), preparation examples
Protocol: The logP values indicated were determined in accordance with EEC Directive 79/831 Annex V.A8 by means of HPLC (High Performance Liquid Chromatography) on a reversed-phase column (C 18). Temperature: 43° C. (a) Eluents for determination in the acidic range: 0.1% aqueous phosphoric acid, acetonitriie; linear gradient from 10% acetonitrile to 90% acetonitrile. (b) Eluents for determination in the neutral range: 0.01 molar aqueous phosphate buffer solution, acetonitrile; linear gradient from 10% acetonitrile to 90% acetonitrile.

[1] = pH 2.3, HPLC C18, 43° C., read-out: logP (pH 2.3)

Row | chromatographic logP (pH 7.5, HPLC C18, 43° C., read-out: logP (pH 7.5)) | chromatographic logP [1] | SMILES
1 | 2.17 | – | Cc1ccc(C(=O)Nn2c(-c3ccccc3)nc(C)c2C)cc1 [Example I-2]
2 | – | 1.69 | Cc1ccc(S(=O)(=O)Nn2c(-c3cc(C)cc(C)c3)nc(C)c2C)cc1 [IV-1]
3 | – | 1.97 | CCc1ccc(C(=O)Nn2c(-c3cc(C)cc(C)c3)nc(C)c2C)cc1 [Example I-1]
4 | – | 0.96 | Cc1cc(C)cc(-c2nc(C)c(C)n2N)c1 [II-1]
